Drawing on patent US8846917B2, “Compounds useful as inhibitors of ATR kinase” (Vertex Pharmaceuticals Incorporated, priority 2011, dated 2014), this text covers Ki for one compound.

This assay has as its target full-length ATR (Homo sapiens (Human), UniProt Q13535). The assay can be described thus: ATR Inhibition Assay (radioactive-phosphate incorporation). The format is biochemical. The note with it: Ki(app); 10 μM ATP, 800 μM target peptide, 5 nM full-length ATR, 25° C. The protocol: Compounds were screened for their ability to inhibit ATR kinase using a radioactive-phosphate incorporation assay. Assays were carried out in a mixture of 50 mM Tris/HCl (pH 7.5), 10 mM MgCl2 and 1 mM DTT. […] Assays were carried out at 25° C. in the presence of 5 nM full-length ATR. An assay stock buffer solution was prepared containing all of the reagents listed above, with the exception of ATP and the test compound of interest. […] The plate was pre-incubated for 10 minutes at 25° C. and the reaction initiated by addition of 15 μL [γ-33P]ATP (final concentration 10 μM). The reaction was stopped after 24 hours by the addition of 30 μL 0.1M phosphoric acid containing 2 mM ATP. A multiscreen phosphocellulose filter 96-well plate (Millipore, Cat no. MAPHN0B50) was pretreated with 100 μL 0.2M phosphoric acid prior to the addition of 45 μL of the stopped assay mixture. The plate was washed with 5×200 μL 0.2M phosphoric acid. After drying, 100 μL Optiphase ‘SuperMix’ liquid scintillation cocktail (Perkin Elmer) was added to the well prior to scintillation counting (1450 Microbeta Liquid Scintillation Counter, Wallac). After removing mean background values for all of the data points, Ki(app) data were calculated from non-linear regression analysis of the initial rate data using the Prism software package (GraphPad Prism version 3.0cx for Macintosh, GraphPad Software, San Diego Calif., USA).

Sequence of full-length ATR (Q13535 whole entry): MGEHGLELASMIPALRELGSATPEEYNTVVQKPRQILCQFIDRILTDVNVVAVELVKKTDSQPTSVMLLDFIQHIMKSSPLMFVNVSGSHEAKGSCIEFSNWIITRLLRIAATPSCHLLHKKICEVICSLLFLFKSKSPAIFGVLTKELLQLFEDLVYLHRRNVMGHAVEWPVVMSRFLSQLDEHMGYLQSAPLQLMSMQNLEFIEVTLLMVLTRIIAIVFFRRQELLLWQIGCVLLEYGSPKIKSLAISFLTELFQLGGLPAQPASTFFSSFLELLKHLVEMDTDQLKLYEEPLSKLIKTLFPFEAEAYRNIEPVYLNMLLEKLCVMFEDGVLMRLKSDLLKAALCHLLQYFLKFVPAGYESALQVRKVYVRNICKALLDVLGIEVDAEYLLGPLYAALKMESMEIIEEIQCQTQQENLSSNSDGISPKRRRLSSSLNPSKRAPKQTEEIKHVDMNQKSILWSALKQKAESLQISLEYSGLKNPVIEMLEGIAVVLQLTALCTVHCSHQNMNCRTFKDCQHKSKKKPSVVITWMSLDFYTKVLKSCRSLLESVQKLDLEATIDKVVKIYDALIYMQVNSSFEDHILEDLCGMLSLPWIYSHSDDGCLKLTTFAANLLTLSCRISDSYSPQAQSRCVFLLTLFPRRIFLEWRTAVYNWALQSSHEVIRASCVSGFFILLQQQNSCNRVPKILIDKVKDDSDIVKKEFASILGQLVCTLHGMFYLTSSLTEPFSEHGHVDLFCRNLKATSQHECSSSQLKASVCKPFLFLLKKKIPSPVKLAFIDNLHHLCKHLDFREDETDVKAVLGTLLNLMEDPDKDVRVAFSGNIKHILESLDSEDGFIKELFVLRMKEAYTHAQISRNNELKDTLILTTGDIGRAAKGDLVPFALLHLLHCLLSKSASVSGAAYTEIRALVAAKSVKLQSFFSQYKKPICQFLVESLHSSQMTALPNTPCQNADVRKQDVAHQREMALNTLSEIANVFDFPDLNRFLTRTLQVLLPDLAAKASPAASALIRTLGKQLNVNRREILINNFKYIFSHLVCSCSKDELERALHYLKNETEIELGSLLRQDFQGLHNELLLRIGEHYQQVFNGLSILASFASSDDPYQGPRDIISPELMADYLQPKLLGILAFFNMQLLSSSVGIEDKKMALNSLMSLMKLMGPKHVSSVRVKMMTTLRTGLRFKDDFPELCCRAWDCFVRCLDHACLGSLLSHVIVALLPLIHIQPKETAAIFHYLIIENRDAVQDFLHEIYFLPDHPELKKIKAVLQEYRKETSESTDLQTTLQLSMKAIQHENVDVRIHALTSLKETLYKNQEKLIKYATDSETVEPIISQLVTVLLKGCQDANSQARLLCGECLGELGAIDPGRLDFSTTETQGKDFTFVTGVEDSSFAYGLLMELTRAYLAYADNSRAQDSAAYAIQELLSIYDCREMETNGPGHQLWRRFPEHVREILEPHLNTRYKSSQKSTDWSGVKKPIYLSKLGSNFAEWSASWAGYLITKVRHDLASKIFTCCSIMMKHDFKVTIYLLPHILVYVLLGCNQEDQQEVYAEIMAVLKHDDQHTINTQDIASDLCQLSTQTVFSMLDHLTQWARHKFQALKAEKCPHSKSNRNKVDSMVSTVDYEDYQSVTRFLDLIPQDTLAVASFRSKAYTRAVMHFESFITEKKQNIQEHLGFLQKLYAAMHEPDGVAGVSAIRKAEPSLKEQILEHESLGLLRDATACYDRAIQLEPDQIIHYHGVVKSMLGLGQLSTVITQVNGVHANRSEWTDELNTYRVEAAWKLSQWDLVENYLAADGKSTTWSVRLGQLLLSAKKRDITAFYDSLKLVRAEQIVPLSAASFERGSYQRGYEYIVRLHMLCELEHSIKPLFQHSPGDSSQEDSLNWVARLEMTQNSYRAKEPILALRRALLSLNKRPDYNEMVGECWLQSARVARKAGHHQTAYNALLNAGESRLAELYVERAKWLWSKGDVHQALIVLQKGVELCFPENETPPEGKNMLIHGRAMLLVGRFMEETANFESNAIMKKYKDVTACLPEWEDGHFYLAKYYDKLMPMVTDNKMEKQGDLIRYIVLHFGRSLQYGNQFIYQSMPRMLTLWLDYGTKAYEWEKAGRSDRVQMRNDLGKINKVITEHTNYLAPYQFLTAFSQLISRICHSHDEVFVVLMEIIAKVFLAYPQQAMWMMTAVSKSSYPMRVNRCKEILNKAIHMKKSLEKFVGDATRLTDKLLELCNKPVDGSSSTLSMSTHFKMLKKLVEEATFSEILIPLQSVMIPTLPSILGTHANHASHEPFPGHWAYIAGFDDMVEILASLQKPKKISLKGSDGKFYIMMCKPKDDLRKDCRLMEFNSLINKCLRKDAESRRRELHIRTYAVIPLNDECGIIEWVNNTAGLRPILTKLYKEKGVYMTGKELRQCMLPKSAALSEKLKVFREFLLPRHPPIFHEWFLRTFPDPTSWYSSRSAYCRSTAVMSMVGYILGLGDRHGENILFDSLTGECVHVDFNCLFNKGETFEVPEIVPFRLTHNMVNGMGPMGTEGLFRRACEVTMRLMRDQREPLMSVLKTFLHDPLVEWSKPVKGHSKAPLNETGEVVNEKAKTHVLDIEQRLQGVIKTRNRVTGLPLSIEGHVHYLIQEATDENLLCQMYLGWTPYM

On to `CC(C)S(=O)(=O)c1ccc(-c2cnc(N)c(-c3cn(-c4ccccc4)nn3)n2)cc1` [Compound I-1, 5-(4-(isopropylsulfonyl)phenyl)-3-(1-phenyl-1H-1,2,3-triazol-4-yl)pyrazin-2-amine], for which the Ki amounted to 6 nM.
